This note sets out measurements from patent publication US20160007585A1, “INSECT CONTROL DEVICE” (Clarke Mosquito Control Products, Inc., priority 2014, published 2016).

For the assay, the system named is Anopheles gambiae. Nature of the assay: Attraction tests in outdoor screenhouses: mosquitoes caught in MM-X or BG Sentinel traps baited with plant-based volatile organic compounds. It counts as in vivo. The conditions noted are these: single compounds suspended in mineral oil; 300-400 released. The method, then: Attraction tests were conducted in two sizes of outdoor screenhouses (˜5.5×7 m and 11×7 m, each>3 m high) at the Mbita research station (Odhiambo Campus, Kenya) of the International Centre of Insect Physiology & Ecology (ICIPE). The screenhouses provided a semi-natural physical environment that allowed experimental control over mosquito sample size and recovery of marked and/or released mosquitoes. It was noted that fluctuations of weather conditions would cause variations in flight behavior from night to night, affecting attraction to volatile organic compounds. The walls and ceiling were lined with netting to reduce interference from ants and spiders and to prevent mosquitoes from aggregating in the vaulted ceiling. The floor was a bed of sand, dampened daily. On the floor at each corner of the screenhouse, dampened pots served as resting harborages, which the mosquitoes typically entered at dawn. When local potted plants were included in the environment, they were spaced throughout the floor.
Tested mosquitoes were the Mbita strain of Anopheles gambiae, colonized locally about 14 years ago, but with infusions of field material in some subsequent years, to maintain genetic diversity. Adults emerging each night from daily collections of pupae were fed water only and were tested in the screenhouses the following night. At this age, both sexes still have adequate deposits of somatic energy from larval feeding but will die during the following 1.5 days without nutrients. Before sunset, the volatile organic compounds baits were installed in mosquito traps, their fans were turned on, and the mosquitoes were released from a small cage prepared for that purpose.
Attraction was measured as the number of mosquitoes caught in MM-X or BG Sentinel traps baited with plant-based volatile organic compounds. The volatile organic compounds were prepared as individual compounds suspended in mineral oil, which controlled release rate according to dosage (concentration) while also retarding release rate of all compounds. Each compound was released separately from other compounds when more than one was released simultaneously. The oil-volatile organic compound suspensions were applied to two different types of release substrates: long nylon fabric strips in the exhaust tube of the trap, and short cotton wicks suspended in a wire basket beneath the exhaust tube. […] As an example of the tested volatile organic compounds, the release profiles of hexanol and phenylacetaldehyde (suspended in hexane or mineral oil, applied to nylon sock or cotton wick) as measured in a MM-X trap is shown in FIGS. 19a and 19b, respectively. The release profiles of hexanol, linalool oxide, ocimene, pinene, and 6-methyl-5-hepten-2-one are similar to phenylacetaldehyde.
The layout of traps was designed to maximize discrimination among traps releasing different plant-based volatile organic compounds or releasing none (the blank control). The small screenhouses contained 2 traps, positioned diagonally. The large screenhouses contained 4 traps. In both sizes, the traps were near the corners, but not so close to the netting walls as to interfere with mosquito flight around the traps or the free flow of the odor plume from the traps. For replicates of each test, the positions of the traps were rotated, to minimize positional bias for one of these variables: a particular compound, particular dose of a compound, or particular combination of several compounds or their proportions. In early tests, a blank trap was always included. But after establishing that a blank trap never caught more than 10 mosquitoes, out of 300-400 released, blank traps were usually replaced by one with a bait using volatile organic compounds. The number trapped out of the total number released, expressed as a percentage, was seldom calculated, because of the large and variable numbers of mosquitoes unaccounted for by trap and aspirator recapture. […]
caryophyllene: the “attraction score (number of mosquitoes caught in baited trap), in words” value (“attraction score” for short) is “in higher dosages (and therefore higher release rates) gave higher attraction scores”. For `CCOC(=O)Cc1ccccc1` [ethylphenylacetate], the “attraction score” value is “in higher dosages (and therefore higher release rates) gave higher attraction scores”.

Regarding `O=CCc1ccccc1` [phenylacetaldehyde], the “attraction score” value is listed as “weak or mediocre”.

As to `CCCCCCO` [Hexanol, hexanol], the “attraction score” value is on record as “good scores even at low dosages, with little or no improvement at higher doses”. In the case of `C=CC(C)(O)CCC=C(C)C` (stereo not drawn) [linalool], the “attraction score” value is “in higher dosages (and therefore higher release rates) gave higher attraction scores”. To `C=CC(C)=CCC=C(C)C` [ocimene] belongs “in higher dosages (and therefore higher release rates) gave higher attraction scores”.
